Experimental data: patent publication US6096930A, “Herbicidal cyclohexane-1,3-dione derivatives and their preparation process” (Korea Research Institute of Chemical Technology, priority 1994, dated 2000)
Like-named read-outs stand apart in the source and are kept apart here.

How the values were obtained:
Type in all cases: in vivo
ABUTH = test: Herbicidal activity, upland test, pre-emergence
Experimental: (§1) The sterilized sandy loam soil is filled in test pot having a surface area of 348 cm^2 for upland test conditions or 115 cm^2 for paddy test species were planted in furrows.
(§2) For the pre-emergent tests, were sprayed on the soil one day after planting test compound in a mixture of acetone and 7 ml of the water containing up to 0.1% Tween 20.
(§3) The concentration of the test compound in solution was varied to give a range of application rates, generally 4.0 kg/ha and submultiples thereof. The pots were placed in a greenhouse and watered regularly at the soil surface for 21 days and herbicidal effects were visually rated by a percent control.
(§4) The herbicidal activity data were taken visually by percent control, wherein 0 signifies no herbicidal effect and 100 signifies complete kill.

AESIN = test: Herbicidal activity, upland test, pre-emergence
Experimental: as §1, §2, §3, §4

BROJA [1] = test: Herbicidal activity, upland test, pre-emergence
Experimental: as §1, §2, §3, §4

DIGSA = test: Herbicidal activity, upland test, pre-emergence
Experimental: as §1, §2, §3, §4

ECHOR [2] = test: Herbicidal activity, upland test, pre-emergence
Experimental: as §1, §2, §3, §4

GLXMX = test: Herbicidal activity, upland test, pre-emergence
Experimental: as §1, §2, §3, §4

GOSHI [3] = test: Herbicidal activity, upland test, pre-emergence
Experimental: as §1, §2, §3, §4

ORYSA [4] = test: Herbicidal activity, upland test, pre-emergence
Experimental: as §1, §2, §3, §4

PANDI = test: Herbicidal activity, upland test, pre-emergence
Experimental: as §1, §2, §3, §4

SOLNI [5] = test: Herbicidal activity, upland test, pre-emergence
Experimental: as §1, §2, §3, §4

SORBI = test: Herbicidal activity, upland test, pre-emergence
Experimental: as §1, §2, §3, §4

TRZAW [6] = test: Herbicidal activity, upland test, pre-emergence
Experimental: as §1, §2, §3, §4

ZEAMX = test: Herbicidal activity, upland test, pre-emergence
Experimental: as §1, §2, §3, §4

BROJA [7] = test: Herbicidal activity, upland test, post-emergence
Description: as §1
(§5) The pots for the post-emergent tests were placed in a greenhouse and watered for 9~14 days, then the foliage of test plants was sprayed with a solution of the test compound in a mixture of acetone and water containing a small amount of Tween 20.
(§6) After spraying the plants were kept for one day, then watered regularly for 14 to 21 days, and herbicidal activity data were recorded.
as §4

ECHOR [8] = test: Herbicidal activity, upland test, post-emergence
Description: as §1, §5, §6, §4

GOSHI [9] = test: Herbicidal activity, upland test, post-emergence
Description: as §1, §5, §6, §4

ORYSA [10] = test: Herbicidal activity, upland test, post-emergence
Description: as §1, §5, §6, §4

SOLNI [11] = test: Herbicidal activity, upland test, post-emergence
Description: as §1, §5, §6, §4

TRZAW [12] = test: Herbicidal activity, upland test, post-emergence
Description: as §1, §5, §6, §4

ECHOR [13] = test: Herbicidal activity for paddy test
How it was run: (§7)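 Visual percent-control rating: 0 = no herbicidal effect, 100 = complete kill. Plants grown in furrows, sterilized sandy loam, 115 cm^2 pots (paddy conditions).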

MOOVA = test: Herbicidal activity for paddy test
How it was run: as §7

ORYSA [14] = test: Herbicidal activity for paddy test; conditions: for plant injury at 2 g/ha: 0.002 kg/ha; for plant injury at 8 g/ha: 0.008 kg/ha; for plant injury at 31 g/ha: 0.031 kg/ha; for plant injury at 125 g/ha: 0.125 kg/ha; for plant injury at 500 g/ha: 0.500 kg/ha
How it was run: as §7

SAGPY = test: Herbicidal activity for paddy test
How it was run: as §7

SCPJU = test: Herbicidal activity for paddy test
How it was run: as §7

[15] = 3 Leaf, read-out: Herbicidal activity, ORYSA (3 Leaf)
[16] = seed, read-out: Herbicidal activity, ORYSA (seed)

What does the source list for CCCC(=NOC)C1=C(O)CC(c2c(C)c(C)c3c(c2C)CC(C)(C)C3)CC1=O (stereo not shown) [Compound 6]?
Herbicidal activity, ABUTH (ABUTH; 0.016 kg/ha): 0 % inhibition; Herbicidal activity, ABUTH (ABUTH; 0.063 kg/ha): 0 % inhibition; Herbicidal activity, ABUTH (ABUTH; 1.000 kg/ha): 0 % inhibition; Herbicidal activity, ABUTH (ABUTH; 1.250 kg/ha): 0 % inhibition; Herbicidal activity, AESIN (AESIN; 0.016 kg/ha): 0 % inhibition; Herbicidal activity, AESIN (AESIN; 0.063 kg/ha): 0 % inhibition; Herbicidal activity, AESIN (AESIN; 1.000 kg/ha): 0 % inhibition; Herbicidal activity, AESIN (AESIN; 1.250 kg/ha): 0 % inhibition; Herbicidal activity, BROJA (BROJA [1]; 0.016 kg/ha): 0 % inhibition; Herbicidal activity, BROJA (BROJA [1]; 0.063 kg/ha): 0 % inhibition; Herbicidal activity, BROJA (BROJA [1]; 1.000 kg/ha): 80 % inhibition; Herbicidal activity, BROJA (BROJA [1]; 1.250 kg/ha): 40 % inhibition; Herbicidal activity, DIGSA (DIGSA; 0.016 kg/ha): 0 % inhibition; Herbicidal activity, DIGSA (DIGSA; 0.063 kg/ha): 0 % inhibition; Herbicidal activity, DIGSA (DIGSA; 1.000 kg/ha): 100 % inhibition; Herbicidal activity, DIGSA (DIGSA; 1.250 kg/ha): 60 % inhibition; Herbicidal activity, ECHOR (ECHOR [2]; 0.016 kg/ha): 0 % inhibition; Herbicidal activity, ECHOR (ECHOR [2]; 0.063 kg/ha): 0 % inhibition; Herbicidal activity, ECHOR (ECHOR [2]; 1.000 kg/ha): 100 % inhibition; Herbicidal activity, ECHOR (ECHOR [2]; 1.250 kg/ha): 50 % inhibition; Herbicidal activity, GLXMX (GLXMX; 0.016 kg/ha): 0 % inhibition; Herbicidal activity, GLXMX (GLXMX; 0.063 kg/ha): 0 % inhibition; Herbicidal activity, GLXMX (GLXMX; 1.000 kg/ha): 0 % inhibition; Herbicidal activity, GLXMX (GLXMX; 1.250 kg/ha): 0 % inhibition; Herbicidal activity, GOSHI (GOSHI [3]; 0.016 kg/ha): 0 % inhibition; Herbicidal activity, GOSHI (GOSHI [3]; 0.063 kg/ha): 0 % inhibition; Herbicidal activity, GOSHI (GOSHI [3]; 1.000 kg/ha): 0 % inhibition; Herbicidal activity, GOSHI (GOSHI [3]; 1.250 kg/ha): 0 % inhibition; Herbicidal activity, ORYSA (ORYSA [4]; 0.016 kg/ha): 0 % inhibition; Herbicidal activity, ORYSA (ORYSA [4]; 0.063 kg/ha): 30 % inhibition; Herbicidal activity, ORYSA (ORYSA [4]; 1.000 kg/ha): 80 % inhibition; Herbicidal activity, ORYSA (ORYSA [4]; 1.250 kg/ha): 30 % inhibition; Herbicidal activity, PANDI (PANDI; 0.016 kg/ha): 0 % inhibition; Herbicidal activity, PANDI (PANDI; 0.063 kg/ha): 80 % inhibition; Herbicidal activity, PANDI (PANDI; 1.000 kg/ha): 100 % inhibition; Herbicidal activity, PANDI (PANDI; 1.250 kg/ha): 100 % inhibition; Herbicidal activity, SOLNI (SOLNI [5]; 0.016 kg/ha): 0 % inhibition; Herbicidal activity, SOLNI (SOLNI [5]; 0.063 kg/ha): 0 % inhibition; Herbicidal activity, SOLNI (SOLNI [5]; 1.000 kg/ha): 0 % inhibition; Herbicidal activity, SOLNI (SOLNI [5]; 1.250 kg/ha): 0 % inhibition; Herbicidal activity, SORBI (SORBI; 0.016 kg/ha): 0 % inhibition; Herbicidal activity, SORBI (SORBI; 0.063 kg/ha): 0 % inhibition; Herbicidal activity, SORBI (SORBI; 1.000 kg/ha): 30 % inhibition; Herbicidal activity, SORBI (SORBI; 1.250 kg/ha): 0 % inhibition; Herbicidal activity, TRZAW (TRZAW [6]; 0.016 kg/ha): 0 % inhibition; Herbicidal activity, TRZAW (TRZAW [6]; 0.063 kg/ha): 0 % inhibition; Herbicidal activity, TRZAW (TRZAW [6]; 1.000 kg/ha): 60 % inhibition; Herbicidal activity, TRZAW (TRZAW [6]; 1.250 kg/ha): 20 % inhibition; Herbicidal activity, ZEAMX (ZEAMX; 0.016 kg/ha): 0 % inhibition; Herbicidal activity, ZEAMX (ZEAMX; 0.063 kg/ha): 0 % inhibition; Herbicidal activity, ZEAMX (ZEAMX; 1.000 kg/ha): 40 % inhibition; Herbicidal activity, ZEAMX (ZEAMX; 1.250 kg/ha): 0 % inhibition; Herbicidal activity, BROJA (BROJA [7]; 0.016 kg/ha): 0 % inhibition; Herbicidal activity, BROJA (BROJA [7]; 0.063 kg/ha): 30 % inhibition; Herbicidal activity, BROJA (BROJA [7]; 1.000 kg/ha): 100 % inhibition; Herbicidal activity, BROJA (BROJA [7]; 1.250 kg/ha): 70 % inhibition; Herbicidal activity, ECHOR (ECHOR [8]; 0.016 kg/ha): 70 % inhibition; Herbicidal activity, ECHOR (ECHOR [8]; 0.063 kg/ha): 100 % inhibition; Herbicidal activity, ECHOR (ECHOR [8]; 1.000 kg/ha): 100 % inhibition; Herbicidal activity, ECHOR (ECHOR [8]; 1.250 kg/ha): 100 % inhibition; Herbicidal activity, GOSHI (GOSHI [9]; 0.016 kg/ha): 0 % inhibition; Herbicidal activity, GOSHI (GOSHI [9]; 0.063 kg/ha): 30 % inhibition; Herbicidal activity, GOSHI (GOSHI [9]; 1.000 kg/ha): 50 % inhibition; Herbicidal activity, GOSHI (GOSHI [9]; 1.250 kg/ha): 40 % inhibition; Herbicidal activity, ORYSA (ORYSA [10]; 0.016 kg/ha): 0 % inhibition; Herbicidal activity, ORYSA (ORYSA [10]; 0.063 kg/ha): 30 % inhibition; Herbicidal activity, ORYSA (ORYSA [10]; 1.000 kg/ha): 100 % inhibition; Herbicidal activity, ORYSA (ORYSA [10]; 1.250 kg/ha): 70 % inhibition; Herbicidal activity, SOLNI (SOLNI [11]; 0.016 kg/ha): 0 % inhibition; Herbicidal activity, SOLNI (SOLNI [11]; 0.063 kg/ha): 0 % inhibition; Herbicidal activity, SOLNI (SOLNI [11]; 1.000 kg/ha): 30 % inhibition; Herbicidal activity, SOLNI (SOLNI [11]; 1.250 kg/ha): 0 % inhibition; Herbicidal activity, TRZAW (TRZAW [12]; 0.016 kg/ha): 0 % inhibition; Herbicidal activity, TRZAW (TRZAW [12]; 0.063 kg/ha): 30 % inhibition; Herbicidal activity, TRZAW (TRZAW [12]; 1.000 kg/ha): 100 % inhibition; Herbicidal activity, TRZAW (TRZAW [12]; 1.250 kg/ha): 50 % inhibition; pest or weed control at 2 g/ha (ECHOR [13]; 0.002 kg/ha): 0%; pest or weed control at 8 g/ha (ECHOR [13]; 0.008 kg/ha): 60%; pest or weed control at 31 g/ha (ECHOR [13]; 0.031 kg/ha): 100%; pest or weed control at 125 g/ha (ECHOR [13]; 0.125 kg/ha): 100%; pest or weed control at 500 g/ha (ECHOR [13]; 0.500 kg/ha): 100%; pest or weed control at 2 g/ha (MOOVA; 0.002 kg/ha): 0%; pest or weed control at 8 g/ha (MOOVA; 0.008 kg/ha): 0%; pest or weed control at 31 g/ha (MOOVA; 0.031 kg/ha): 0%; pest or weed control at 125 g/ha (MOOVA; 0.125 kg/ha): 0%; pest or weed control at 500 g/ha (MOOVA; 0.500 kg/ha): 0%; plant injury at 2 g/ha (ORYSA [14]; [15]): 0%; plant injury at 8 g/ha (ORYSA [14]; [15]): 0%; plant injury at 31 g/ha (ORYSA [14]; [15]): 0%; plant injury at 125 g/ha (ORYSA [14]; [15]): 20%; plant injury at 500 g/ha (ORYSA [14]; [15]): 65%; plant injury at 2 g/ha (ORYSA [14]; [16]): 0%; plant injury at 8 g/ha (ORYSA [14]; [16]): 0%; plant injury at 31 g/ha (ORYSA [14]; [16]): 100%; plant injury at 125 g/ha (ORYSA [14]; [16]): 100%; plant injury at 500 g/ha (ORYSA [14]; [16]): 100%; pest or weed control at 2 g/ha (SAGPY; 0.002 kg/ha): 0%; pest or weed control at 8 g/ha (SAGPY; 0.008 kg/ha): 0%; pest or weed control at 31 g/ha (SAGPY; 0.031 kg/ha): 0%; pest or weed control at 125 g/ha (SAGPY; 0.125 kg/ha): 0%; pest or weed control at 500 g/ha (SAGPY; 0.500 kg/ha): 40%; pest or weed control at 2 g/ha (SCPJU; 0.002 kg/ha): 0%; pest or weed control at 8 g/ha (SCPJU; 0.008 kg/ha): 0%; pest or weed control at 31 g/ha (SCPJU; 0.031 kg/ha): 0%; pest or weed control at 125 g/ha (SCPJU; 0.125 kg/ha): 0%; pest or weed control at 500 g/ha (SCPJU; 0.500 kg/ha): 0%
